Experimental data taken from patent publication US9957261B2 (Hoffmann-La Roche Inc., priority 2014, dated 2018).

How the values were obtained:
[1] = target: mouse TAAR1 (Mus musculus (Mouse), UniProt Q923Y8); assay: Radioligand binding assay on mouse TAAR1; settings: mouse TAAR1, membranes of stably transfected HEK-293 cells; first value of mouse/rat pair
How it was run: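 Membranes from HEK293 cells stably expressing mouse TAAR1, in HEPES-NaOH pH 7.4; displacement of ³H-(S)-4-[(ethyl-phenyl-amino)-methyl]-4,5-dihydro-oxazol-2-ylamine, nonspecific binding with 10 μM unlabeled ligand.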

[2] = target: rat TAAR1 (Rattus norvegicus (Rat), UniProt Q923Y9); assay: Radioligand binding assay on rat TAAR1; settings: rat TAAR1, membranes of stably transfected HEK-293 cells; second value of mouse/rat pair
How it was run: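 Competition binding with [3H]-(S)-4-[(ethyl-phenyl-amino)-methyl]-4,5-dihydro-oxazol-2-ylamine on membranes from HEK293 cells stably expressing rat TAAR1, in HEPES-NaOH pH 7.4. Compounds spanned 10 pM-10 μM in duplicate, incubated 1 h at 4 °C, with nonspecific binding set by 10 μM unlabeled ligand. Filtration followed by scintillation counting.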

Sequence of mouse TAAR1 (Q923Y8 whole entry): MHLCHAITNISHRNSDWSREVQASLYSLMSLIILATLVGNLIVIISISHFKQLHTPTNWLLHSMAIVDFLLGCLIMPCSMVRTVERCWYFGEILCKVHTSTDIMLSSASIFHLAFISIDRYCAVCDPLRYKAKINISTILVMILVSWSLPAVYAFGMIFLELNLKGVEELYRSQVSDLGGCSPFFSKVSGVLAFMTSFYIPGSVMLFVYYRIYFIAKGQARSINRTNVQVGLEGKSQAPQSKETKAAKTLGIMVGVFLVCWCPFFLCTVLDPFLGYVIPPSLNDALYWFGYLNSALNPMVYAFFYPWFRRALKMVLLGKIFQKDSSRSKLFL
Sequence of rat TAAR1 (Q923Y9 whole entry): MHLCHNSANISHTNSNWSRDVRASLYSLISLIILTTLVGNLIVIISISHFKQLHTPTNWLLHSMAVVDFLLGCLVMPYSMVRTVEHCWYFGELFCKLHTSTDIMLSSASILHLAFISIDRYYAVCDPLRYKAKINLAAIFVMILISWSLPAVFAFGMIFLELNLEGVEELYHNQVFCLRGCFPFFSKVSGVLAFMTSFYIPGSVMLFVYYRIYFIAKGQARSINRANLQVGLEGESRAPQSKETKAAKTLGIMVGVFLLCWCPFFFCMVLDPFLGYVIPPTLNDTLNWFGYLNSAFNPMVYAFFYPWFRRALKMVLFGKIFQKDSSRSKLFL

Row | Compound | Ki [1] [µM] | Ki [2] [µM]
1 | N[C@H]1CCc2c(ccc(NC(=O)c3ccc(Cl)nc3)c2Cl)C1 [Example 76, (S)—N-(6-Amino-1-chloro-5,6,7,8-tetrahydronaphthalen-2-yl)-6-chloronicotinamide] | > 1.51 | 0.302
2 | COc1cccc(Nc2ccc3c(c2)CC[C@H](N)C3)c1 [Example 94, (S)—N6-(3-Methoxyphenyl)-1,2,3,4-tetrahydronaphthalene-2,6-diamine] | 0.0541 | 0.0462
3 | N[C@H]1COc2cc(NC(=O)c3ccnc(C(F)(F)F)c3)ccc2C1 [Example 90, (R)—N-(3-Aminochroman-7-yl)-2-(trifluoromethyl)isonicotinamide] | 0.0091 | 0.0096
4 | N[C@H]1CCc2cc(Nc3ccc(C4CC4)cc3)ccc2C1 [Example 73, (S)—N6-(4-Cyclopropylphenyl)-1,2,3,4-tetrahydronaphthalene-2,6-diamine] | 0.01 | 0.0081
5 | CCc1n[nH]c(C(=O)Nc2ccc3c(c2)CC[C@H](N)C3)c1C [Example 51, (S)—N-(6-Amino-5,6,7,8-tetrahydronaphthalen-2-yl)-3-ethyl-4-methyl-1H-pyrazole-5-carboxamide] | 0.0062 | 0.0046
6 | CCCc1cc(C(=O)Nc2ccc3c(c2)CC[C@H](N)C3)nn1CC(F)F [Example 5, (S)—N-(6-Amino-5,6,7,8-tetrahydronaphthalen-2-yl)-1-(2,2-difluoroethyl)-5-propyl-1H-pyrazole-3-carboxamide] | 0.0067 | 0.0021
7 | N[C@H]1CCc2cc(Nc3cccc(OC(F)(F)F)c3)ccc2C1 [Example 61, (S)—N6-(3-(Trifluoromethoxy)phenyl)-1,2,3,4-tetrahydronaphthalene-2,6-diamine] | 0.0071 | 0.0049
8 | NC1CCc2cc(NC(=O)c3ccnc(C(F)(F)F)c3)ccc2C1 (stereo not shown) [Example 1, N-(6-Amino-5,6,7,8-tetrahydronaphthalen-2-yl)-2-(trifluoromethyl)isonicotinamide] | 0.0159 | 0.0072
